The text below walks through data of patent US20180214449A1, “CANCER THERAPY USING JAK INHIBITOR IN COMBINATION WITH MAPK INHIBITORS” (UBRX, INC., priority 2015, published 2018).

For assay [1], the system named is mouse T-cell lymphoma cells. The note with it: read-out: IC50, IL-2 and IL-4-dependent proliferation; cited from earlier work.
Assay [2] has as its system other protein tyrosine kinases. The note with it: read-out: IC50s for other protein tyrosine kinases; units printed within the range (nM to μM); cited from earlier work.
In assay [3] the test system is B-Raf inhibitor resistant cells A375 or Lu1205R. The experiment in a line: Growth in soft agar of B-Raf inhibitor resistant cells. Format: cell-based, human. The note with it: two weeks in soft agar. As to the method: Melanoma cells A375 and Lu1205 were cultured in Dulbecco's modified Eagle's medium (DMEM) supplemented with 10% fetal bovine serum (FBS), and penicillin-streptomycin. The melanoma UACC cell lines (UACC91, UACC502, UACC612, UACC647, and UACC1113) were maintained in Rosewell Park Memorial Institute Medium (RPMI1640) supplemented with 10% FBS and penicillin-streptomycin.

A further assay relates to UACC1308. Put plainly: IC50 to B-Raf inhibitors in melanoma cell line. The note with it: Homo sapiens. Format: cell-based.
For another assay, the system named is UACC3291. The experiment in a line: IC50 to B-Raf inhibitors in melanoma cell line. The conditions noted are these: Homo sapiens. It is filed as cell-based.
Another assay deals with UACC2641. The experiment in a line: IC50 to B-Raf inhibitors in melanoma cell line. It is filed as cell-based. The note with it: Homo sapiens.
A further assay has as its system UACC257. Put plainly: IC50 to B-Raf inhibitors in melanoma cell line. It is filed as cell-based. The conditions noted are these: Homo sapiens, UACC-257.
Another assay relates to UACC558. Put plainly: IC50 to B-Raf inhibitors in melanoma cell line. The conditions noted are these: Homo sapiens. Format: cell-based.
A further assay deals with UACC502. Put plainly: IC50 to B-Raf inhibitors in melanoma cell line. The note with it: Homo sapiens. Format: cell-based. As to the method:
(§1) Melanoma cells A375 and Lu1205 were cultured in Dulbecco's modified Eagle's medium (DMEM) supplemented with 10% fetal bovine serum (FBS), and penicillin-streptomycin. The melanoma UACC cell lines (UACC91, UACC502, UACC612, UACC647, and UACC1113) were maintained in Rosewell Park Memorial Institute Medium (RPMI1640) supplemented with 10% FBS and penicillin-streptomycin. In order to develop resistance to B-Raf inhibitor PLX-4032, the cells were grown with increasing concentrations of the inhibitor at each passage and eventually maintained in appropriate media containing either 5 μM (for A375 and Lu1205 cells) or 1 μM (for UACC cells) PLX-4032.
(§2) Melanoma cell lines UACC91, UACC502, UACC612, UACC647, and UACC1113 were treated with B-Raf inhibitors PLX-4032 or PLX-4720, and the IC50 values were correlated with RNF125 expression levels. The RNF125 expression was determined using RNA-Sequencing (RNA-Seq) methods and expressed in fragments per kilobase per million reads unit (FPKM).

The next assay has as its system UACC647. Put plainly: IC50 to B-Raf inhibitors in melanoma cell line. The note with it: Homo sapiens. Format: cell-based. As to the method:
as §1, §2

Another assay deals with UACC91. Put plainly: IC50 to B-Raf inhibitors in melanoma cell line. The note with it: Homo sapiens. It is filed as cell-based. How it is done: as §1, §2
For the next assay, the system named is UACC612. The experiment in a line: IC50 to B-Raf inhibitors in melanoma cell line. The conditions noted are these: Homo sapiens. Format: cell-based. As to the method:
as §1, §2

A further assay deals with UACC903. The experiment in a line: IC50 to B-Raf inhibitors in melanoma cell line. Format: cell-based. The conditions noted are these: Homo sapiens, UACC-903.
In another assay the test system is JAK1. The conditions noted are these: cited from earlier work.
The next assay addresses JAK2 (Homo sapiens, UniProt O60674). The conditions noted are these: cited from earlier work.
Assay [4] relates to A375, Lu1205, and several UACC melanoma cell lines resistant to BRAF inhibitors or BRAF and MEK inhibitors. The experiment in a line: Example 2: growth in soft agar of resistant melanoma cells. It is filed as cell-based, human. The conditions noted are these: two weeks in soft agar, 0-10 μM. How it is done: The cells are grown for two weeks in soft agar, in the presence of 0-10 μM of ruxolitinib (JAK1 inhibitor), dabrafenib (BRAF inhibitor), trametinib (MEK inhibitor) as single agents or in combination therapies, using a constant volume of inhibitor for all the conditions.

The test system of another assay is melanoma patients. The note with it: clinical trial data; cited from earlier work.

JAK2, sequence (O60674 whole entry, species assumed): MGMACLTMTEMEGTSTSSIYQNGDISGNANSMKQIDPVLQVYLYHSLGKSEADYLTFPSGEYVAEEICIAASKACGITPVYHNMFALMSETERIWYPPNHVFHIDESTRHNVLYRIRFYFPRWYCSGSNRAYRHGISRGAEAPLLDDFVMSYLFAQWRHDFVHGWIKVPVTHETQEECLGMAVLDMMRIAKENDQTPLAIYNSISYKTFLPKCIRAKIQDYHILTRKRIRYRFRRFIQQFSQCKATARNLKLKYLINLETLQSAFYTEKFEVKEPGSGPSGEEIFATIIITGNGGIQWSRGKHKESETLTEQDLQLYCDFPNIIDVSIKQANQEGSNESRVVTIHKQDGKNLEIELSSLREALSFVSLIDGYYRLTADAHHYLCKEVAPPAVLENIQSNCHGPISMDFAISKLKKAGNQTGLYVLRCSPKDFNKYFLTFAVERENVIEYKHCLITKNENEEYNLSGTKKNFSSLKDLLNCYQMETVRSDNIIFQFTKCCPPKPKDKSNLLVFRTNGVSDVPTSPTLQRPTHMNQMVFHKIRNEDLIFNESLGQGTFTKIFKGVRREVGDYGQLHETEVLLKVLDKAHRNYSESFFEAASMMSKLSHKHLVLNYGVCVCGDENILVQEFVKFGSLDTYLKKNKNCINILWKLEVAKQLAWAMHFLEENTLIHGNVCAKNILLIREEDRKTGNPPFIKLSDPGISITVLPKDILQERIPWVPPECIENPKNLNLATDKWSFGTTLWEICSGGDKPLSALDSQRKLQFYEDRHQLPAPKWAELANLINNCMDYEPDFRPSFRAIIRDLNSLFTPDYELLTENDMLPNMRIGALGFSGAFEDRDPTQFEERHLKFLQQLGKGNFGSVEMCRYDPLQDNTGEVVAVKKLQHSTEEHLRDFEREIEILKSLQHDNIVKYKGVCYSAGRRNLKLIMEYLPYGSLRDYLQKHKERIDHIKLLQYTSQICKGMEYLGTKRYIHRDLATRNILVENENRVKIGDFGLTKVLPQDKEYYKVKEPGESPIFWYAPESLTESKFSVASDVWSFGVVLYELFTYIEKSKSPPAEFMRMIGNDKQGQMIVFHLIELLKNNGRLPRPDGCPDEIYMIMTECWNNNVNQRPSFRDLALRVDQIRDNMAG

With `CC(C)(C)c1nc2c3cc[nH]c(=O)c3c3cc(F)ccc3c2[nH]1` [Pyridone 6], the IC50 in assay [1] is 50 to 100 nM; in assay [2] it was at least 130 nM.

For the compound `COc1cc2ncnc(Nc3ccc(F)c(Cl)c3)c2cc1OCCCN1CCOCC1` [Gefitinib], the “growth in soft agar” value in assay [3] is “did not inhibit growth”.

Consider `CCCS(=O)(=O)Nc1ccc(F)c(C(=O)c2c[nH]c3ncc(Cl)cc23)c1F` [PLX-4702], for which the IC50 amounted to 90 nM in the assay on UACC1308; 90 nM in the assay on UACC3291; 4590 nM in the assay with UACC2641; 140 nM with UACC257; 420 nM in the assay with UACC558; 780 nM in the assay with UACC502. Besides, the IC50 with UACC647 came out at 6720 nM; with UACC91 it was 532 nM; with UACC612 it was 5480 nM; in the assay with UACC903, 250 nM.

Take `Cc1cc(Nc2nc(N[C@@H](C)c3ncc(F)cn3)ncc2Cl)n[nH]1` [AZD1480]: the IC50 was 1.3 nM with JAK1 and 0.26 nM at JAK2. Moreover, the “growth in soft agar” value in [3] is given as “did not inhibit growth”.

In the case of `CCCS(=O)(=O)Nc1ccc(F)c(C(=O)c2c[nH]c3ncc(-c4ccc(Cl)cc4)cc23)c1F` [PLX-4032, vemurafenib], the IC50 was determined as 60 nM with UACC1308; 60 nM in the assay on UACC3291; 5880 nM with UACC2641; 150 nM with UACC257; 690 nM with UACC558; 550 nM in the assay with UACC502. In addition, the IC50 is 3370 nM in the assay on UACC647, 301 nM in the assay on UACC91, 3780 nM with UACC612 and 250 nM in the assay on UACC903.

As for `CC(C)(C)c1nc(-c2cccc(NS(=O)(=O)c3c(F)cccc3F)c2F)c(-c2ccnc(N)n2)s1` [dabrafenib], the “growth of the melanoma cells in soft agar” value in [4] is listed as “does not block the growth”. In addition, the “time until resistance occurs” value with melanoma patients is given as 6 to 7 months.
